Measured values: PMC9649909, “Wnt-pathway inhibitors with selective activity against triple-negative breast cancer: From thienopyrimidine to quinazoline inhibitors” (Frontiers in Pharmacology, 2022)
Read-outs that look alike come from different tables or passages of the source.

What was measured:
[1] = tested on: MDA-MB-468 TNBC cell line; experiment: MTT survival assay MDA-MB-468; assay type: cell-based; details: Homo sapiens, MDA-MB-468; Table S2
Procedure: (§1) Indicated TNBC cell lines were detached and resuspended at 120,000 cells/ml and added into each well of a transparent 384-well plate in the final volume of 20 µl/well. The cells were maintained in DMEM containing 10% FBS at 37°C, 5% CO2 overnight. Next day, the medium in each well was replaced by 40 μl of the fresh one containing the indicated concentrations of compounds. In case of drug combination experiments, each compound dilution was delivered in corresponding well in 20 μl of medium. […] After incubation for 3–4 days, depending on the cell line, the medium in each well was replaced by 25 μl of 0.5 mg/ml Thiazolyl blue solution in 1xPBS following by incubation for 3 h at 37°C. Then the solution was removed and 25 μl DMSO was added into each well. Absorbance at 510 nm was measured in a Tecan Infinite M200 PRO plate reader.

HCC1806 TNBC cell line = experiment: MTT survival assay HCC1806; assay type: cell-based; details: for IC50: Homo sapiens, HCC1806
Procedure: as §1

BT-20 TNBC cell line = experiment: MTT survival assay BT-20; assay type: cell-based; details: Homo sapiens, BT-20
Procedure: as §1

HCC1395 TNBC cell line = experiment: MTT survival assay HCC1395; assay type: cell-based; details: Homo sapiens, HCC1395
Procedure: as §1

in vitro = details: human, HCC1395 Cytotoxicity IC50
Procedure: (§2) The simplicity of the scaffold combined with synthetic accessibility allows building a library of compounds and performing structure activity relationship (SAR) studies of the three main parts of the molecule: the top part, the linker and the core (Figure 2).
(§3) The synthesized compounds were used to explore SAR of three defined areas of investigation (Figure 2). All compounds were tested in the HCC1395 TNBC cell line using the GSK3β inhibitor to induce β-catenin signaling since 4a acted downstream of GSK3β (Figure 2). Both inhibition of β-catenin signaling measured by the TopFlash reporter and cytotoxicity measured by the Renilla reporter were assessed.
(§4) The Wnt3a or CHIR99021-stimulated luciferase activity in HCC1395 TNBC cell line stably transfected with the TopFlash reporter was analyzed essentially as described for the BT-20 TNBC cell line ([Shaw et al., 2019b]; [Koval et al., 2021]). Reporter cells were seeded at 10,000 cells/well in a white opaque 384-well plate in the final volume of 20 μl of DMEM medium supplemented with 10% FCS. The cells were maintained incubated at 37°C, 5% CO2 overnight for attachment. Subsequently, they were transfected by a plasmid encoding constitutively expressed Renilla luciferase under the CMV promoter overall as described in the manufacturer’s protocol using 12 μg/ml of DNA and 40 μl/ml XtremeGENE nine reagent. The next day, the medium in each well was replaced with a 10 μl of fresh medium containing compound of interest, and, after 1 h of preincubation with the compounds, additional 10 μl of medium supplemented with Wnt3a [purified as described ([Willert et al., 2003]; [Koval and Katanaev, 2011])] or CHIR99021 were added creating respective final concentrations of 2.5 μg/ml or 5 μM of each. In case of other signal transduction reporters, no additional stimulation was performed. Compound dilutions were prepared by serial dilution in DMSO and diluted with the amount of medium necessary to obtain their final concentrations indicated on the figures and tables and maintain concentration of DMSO of 0.5% in all assay points. After overnight incubation, the supernatant in each well was removed, and the luciferase activity was measured as described ([Dyer et al., 2000]; [Huber et al., 2021]; [Pellissier et al., 2021]). The culture medium was completely removed from all wells of the plate. Finally, the luciferase activity of the firefly and Renilla luciferases was detected sequentially in individual wells of a 384-well plate through injection of corresponding measurement solutions and immediate reading (400 ms integration time) in Infinite M Plex multifunctional plate reader with injection module.

HCC1395 cells = experiment: in vitro; details: for HCC1395 Cytotoxicity Efficacy: human
Procedure: as §2, §3, §4

[2] = tested on: non-cancerous breast epithelial cell line MCF10a; experiment: MTT survival assay MCF10a; assay type: cell-based; details: for IC50: Homo sapiens, MCF-10A
Procedure: as §1

TNBC cell proliferation = experiment: Loewe synergism with docetaxel in anti-proliferative assay (COMBENEFIT); assay type: cell-based; details: Loewe model
Source text: The Wnt-pathway is implicated in chemoresistance to conventional chemotherapies and drives a poor chemotherapy response in a broad range of tumors ([O’Reilly et al., 2015]; [Martin-Orozco et al., 2019]; [Zhong and Virshup, 2020]). To assess how combination with our compounds affects the anti-proliferative capacity of docetaxel—one of the first-line treatments for TNBC ([Mandapati and Lukong, 2022]), we performed the Loewe synergism assessment over a complete dose-response range of both compounds followed by analysis in the COMBENEFIT software in Matlab (Figure 7 and Supplementary Figure S1) ([Di Veroli et al., 2016]).
as §1
The data was visualized analyzed in either GraphPad Prism nine using indicated statistical analysis or in R using gplots package ([Warnes et al., 2009]). Dataset from CCLE ([Barretina et al., 2012]) were used in the study and pathway enrichment analysis was performed by DAVID online tool ([Sherman et al., 2022]). Drug combination data was treated in COMBENEFIT software ([Di Veroli et al., 2016]). Network was built using Cytoscape with StringDB plugin ([Shannon et al., 2003]; [Szklarczyk et al., 2021]).

[3] = tested on: MDA-MB-231 TNBC cell line; experiment: MTT survival assay MDA-MB-231; assay type: cell-based; details: for IC50: Homo sapiens, MDA-MB-231
Procedure: as §1

[4] = tested on: β-catenin-dependent Wnt-pathway; experiment: TopFlash luciferase reporter assay, CHIR99021-stimulated, HCC1395; assay type: cell-based; details: for Emax / IC50: stimulation with CHIR99021 (GSK3β inhibitor); for Emax: read-out: HCC1395 TopFlash Efficacy; for IC50: read-out: HCC1395 TopFlash IC50
Source text: Both stimulations abolish formation of the destruction complex, a multiprotein complex consisting of Axin, adenomatous polyposis coli (APC), glycogen synthase kinase three beta (GSK3β), and casein kinase one alpha (CK1α). Upon inactivation of the complex, β-catenin accumulates in the cytoplasm and translocates into the nucleus where it interacts with transcription factors. These downstream events are quantified by a Luciferase transcription-based readout assay (TopFlash assay).

[5] = Figure 3B heatmap, read-out: IC50, μM (HCC1806)
[6] = Table S2, read-out: MTT HCC1806 IC50
[7] = Table S2, read-out: MTT BT-20 IC50
[8] = Table S2, read-out: MTT HCC-1395 IC50
[9] = Figure 3B heatmap, read-out: IC50, μM (MCF10)
[10] = Table S2, read-out: MTT MCF10 IC50
[11] = Table S2, read-out: MTT MDA-MB-231 IC50
[12] = Figure 3B heatmap, read-out: IC50, μM (MDA-MB-231)

| Compound | IC50 [1] [nM] | IC50 (HCC1806 TNBC cell line; [5]) [µM] | IC50 (HCC1806 TNBC cell line; [6]) [µM] | IC50 (BT-20 TNBC cell line; [7]) [µM] | IC50 (HCC1395 TNBC cell line; [8]) [µM] | IC50 (in vitro) [µM] | HCC1395 Cytotoxicity Efficacy (HCC1395 cells) [%] | IC50 [2, 9] [µM] | IC50 [2, 10] [µM] | effect of co-treatment with docetaxel (TNBC cell proliferation) | IC50 [3, 11] [µM] | Emax ([4]; Homo sapiens, HCC1395, HCC1395) [%] | IC50 ([4]; Homo sapiens, HCC1395, HCC1395) [nM] | MTT HCC1806 Comments (HCC1806 TNBC cell line; Table S2) | GSK HCC1395 Renilla Comments (HCC1395 cells) | MTT MDA-MB-231 Comments ([3]; Table S2) | IC50 [3, 12] [µM] | also measured |
| --- | --- | --- | --- | --- | --- | --- | --- | --- | --- | --- | --- | --- | --- | --- | --- | --- | --- | --- |
| COc1cc(CNc2ncnc3sccc23)ccc1F [Compound 4p, N-(4-fluoro-3-methoxybenzyl)thieno[2,3-d]pyrimidin-4-amine] | > 50000 | > 10 | > 50 | > 50 | 13.6 | 4.04 | 41.8 | > 10 | > 50 | exclusively synergistic effects | > 50 | 71.4 ± 11.1 | 2590 ± 1080 |  |  |  |  | GSK HCC1395 Comments ([4]; Table S2): Toxic |
| COc1ccccc1C(C)Nc1ncnc2sccc12 (centres unmarked) [Compound 5a, N-(1-(2-methoxyphenyl)ethyl)thieno[2,3-d]pyrimidin-4-amine] | 100 | > 50 | > 10 | 4.08 | 0.12 | > 50 |  |  | > 10 | exclusively synergistic effects | > 10 | 46.1 ± 3.44 | 770 ± 440 | Inactive | Non-toxic | Inactive |  | MTT MCF10 Comments ([2]; Table S2): Inactive |
| c1ccc(CCCNc2ncnc3sccc23)cc1 [Compound 5h, N-(3-phenylpropyl)thieno[2,3-d]pyrimidin-4-amine] | > 50000 | > 10 | 37.1 | 36.8 |  | > 50 |  | > 10 | > 50 |  | > 50 |  | > 50000 |  | Non-toxic |  | > 10 | IC50 (BT-20 TNBC cell line; Figure 3B heatmap, no activity up to maximal tested concentration, read-out: IC50, μM (BT20)): > 50 µM; IC50 (HCC1395 TNBC cell line; MTT, Figure 3B heatmap and text, read-out: IC50, μM (HCC1395)): > 50 µM; selectivity over the control cells (difference in IC50, MCF10a vs HCC1395) ([2]; MTT IC50 ratio MCF10a / HCC1395): less than 3 fold; TopFlash activity in words ([4]; HCC1395, CHIR99021): inactive |
| Clc1ccccc1CCNc1ncnc2sccc12 [Compound 5k, N-(2-chlorophenethyl)thieno[2,3-d]pyrimidin-4-amine] | > 50000 |  | > 50 | > 50 | 4.24 | > 50 |  |  | 43.6 |  | > 50 | 93.2 ± 10.6 | 42900 ± 50200 |  | Non-toxic |  | > 10 |  |
| Clc1cccc(CCNc2ncnc3sccc23)c1 [Compound 5l, N-(3-chlorophenethyl)thieno[2,3-d]pyrimidin-4-amine] | 37000 |  | 38.1 | 15 | 6.15 | > 50 |  |  | > 50 |  | > 50 | 77.5 ± 16.3 | 1790 |  | Non-toxic |  | > 10 | IC50 ([4]; HCC1395): 3070 ± 2390 nM |
| Clc1ccc(CCNc2ncnc3sccc23)cc1 [Compound 5m, N-(4-chlorophenethyl)thieno[2,3-d]pyrimidin-4-amine] | 8460 |  | 13.1 | 6.72 | 3.7 | > 50 |  | > 10 | > 50 | exclusively synergistic effects | > 50 | 82 ± 21.1 | 1790 ± 1450 |  | Non-toxic |  | > 10 | MTT MCF10 Comments ([2]; Table S2): Inactive |
| COc1cccc(CNc2ncnc3ccccc23)c1 [Compound 9b, N-(3-methoxybenzyl)quinazolin-4-amine] | 2620 |  | > 50 | 1.1 | 1.05 | > 50 |  |  | 40.1 |  | > 50 | 82.6 ± 13.5 |  | Inactive | Non-toxic | Inactive | > 10 |  |
| Fc1ccc(CNc2ncnc3ccccc23)cc1 [Compound 9d, N-(4-fluoro)quinazolin-4-amine] | 800 |  | > 10 | 2.92 | 1.15 | > 50 |  |  | 12.5 | exclusively synergistic effects | > 10 | 87.1 ± 4.09 | 670 ± 130 | Inactive |  | Inactive |  |  |
| Cc1ccc(CNc2ncnc3ccccc23)cc1 [Compound 9f, N-(4-methyl)quinazolin-4-amine] | 830 |  | 23.4 | 6.08 | 1.07 | 8.13 ± 3.8 | 100 ± 0 |  | 9.42 | exclusively synergistic effects | > 10 | 51.6 ± 7.9 | 1220 ± 330 |  |  | Inactive |  |  |
| Cc1ccc(C(C)Nc2ncnc3ccccc23)cc1 (centres unmarked) [Compound 9i, N-(1-(p-tolyl)ethyl)quinazolin-4-amine] |  |  |  |  |  | 10.3 ± 2.06 | 38.7 ± 12.8 |  |  | exclusively synergistic effects |  | 54.6 ± 2.9 | 1880 ± 280 |  |  |  |  |  |
